Data set [1] has as its system E. gabavorous KLE1738. Kind of data set: Growth induction of E. gabavorous by compounds spotted on FAAy plates. The data set is classed as cell-based, Evtepia gabavorous. Particulars: 5 μL of stock spotted on FAAy plates spread with E. gabavorous, anaerobic, one week. The protocol:
Stocks of each compound (purchased from Sigma, excluding the ATCC Mineral and Vitamin mixes) were prepared dependent on solubility in water at the concentrations shown in FIG. 2G. Five μL of the stocks were then spotted on FAAy plates spread with E. gabavorous, and incubated anaerobically for one week, and any growth was observed.

For data set [2] the following is noted: in mice; cited from earlier work.
The conditions of data set [3]: in rodents; cited from earlier work.

Entries after “also recorded” stand apart in the source; their conditions may differ.

As usually defined, the half-life is the time in which the quantity being followed falls by half. With `NCCCC(=O)O` [GABA, gamma-aminobutyric acid], the “growth induction of E. gabavorous by spotted compound” value (“growth induction of E. gabavorous” for short) in data set [1] is given as “capable of inducing growth of E. gabavorous KLE1738; also recorded: caused growth induction; also recorded: induced growth”. In data set [2], the half-life was 17 min. Further, the “brain efflux rate relative to influx rate” value in data set [3] is recorded as 17 times.

Regarding `C[C@H](N)C(=O)O` [alanine], the “growth induction of E. gabavorous” value in data set [1] is given as “only GABA caused growth induction”.

In the case of `NC(=O)CC[C@H](N)C(=O)O` [glutamine], the “growth induction of E. gabavorous” value in data set [1] is “only GABA caused growth induction”.

For `CC(O)C(=O)O` (stereo not shown) [lactic acid], the “growth induction of E. gabavorous” value in data set [1] is given as “only GABA caused growth induction”.

On to `O=C(O)CC(=O)O` [malonic acid], for which the “growth induction of E. gabavorous” value in data set [1] is recorded as “only GABA caused growth induction”.

On to `O=C(O)CCC(=O)O` [succinic acid], for which, in data set [1], the “growth induction of E. gabavorous” value is given as “only GABA caused growth induction”.

Turning to `C[C@@H](O)[C@H](N)C(=O)O` [threonine], the “growth induction of E. gabavorous” value in data set [1] is given as “only GABA caused growth induction”.

In the case of `CC(C)[C@H](N)C(=O)O` [valine], the “growth induction of E. gabavorous” value in data set [1] is on record as “only GABA caused growth induction”.

The values above are taken from patent US11116804B2, “Modulation of the gut microbiome to treat mental disorders or diseases of the central nervous system” (Holobiome, Inc., priority 2016, dated 2021).
